For series [1], the system named is normal fibroblasts (dermal fibroblasts CCD25Sk). Briefly: Cell viability MTT assay, fibroblasts. It is filed as cell-based, human. Conditions: for IC50: Fibroblasts, read-out: IC50 values ± SD in MTT assay. (In general: Tetrazolium dyes change colour on reduction, which living cells bring about.)
In series [2] the test system is endometrial adenocarcinoma Ishikawa cells. As to the kind of experiment: Cell viability neutral red uptake assay, Ishikawa. The series is classed as cell-based, human. Conditions: read-out: IC50 values ± SD in neutral red uptake assay.
Series [3] relates to cervical adenocarcinoma HeLa cells. As to the kind of experiment: Cell viability MTT assay, HeLa. The series is classed as cell-based, human.
For series [4], the system named is normal fibroblasts (dermal fibroblasts CCD25Sk). Briefly: Cell viability neutral red uptake assay, fibroblasts. The series is classed as cell-based, human. Conditions: read-out: IC50 values ± SD in neutral red uptake assay.
Series [5] concerns cervical adenocarcinoma HeLa cells. Briefly: Cell viability neutral red uptake assay, HeLa. The series is classed as cell-based, human. Conditions: read-out: IC50 values ± SD in neutral red uptake assay.
In series [6] the test system is endometrial adenocarcinoma Ishikawa cells. As to the kind of experiment: Cell viability MTT assay, Ishikawa. The series is classed as cell-based, human. Particulars: read-out: IC50 values ± SD in MTT assay.
In series [7] the test system is breast epithelial cells MCF 10A. Briefly: Cell viability MTT assay, MCF 10A. The series is classed as cell-based, human. Conditions: 48 h.
In series [8] the test system is cervical adenocarcinoma HeLa cells. Particulars: cited from earlier work; for IC50: HeLa, ref Souza et al., 2017, read-out: IC50 determined by MTT assay.
Setting [9] is: HeLa, 24 h, read-out: IC50 values ± SD in MTT assay.
The mark [10] stands for this setting: HeLa, 48 h, read-out: IC50 values ± SD in MTT assay.
Where [11] appears, read: Homo sapiens, HeLa, 24 h, HeLa, 24 h, read-out: IC50 values ± SD in MTT assay.
Setting [12] is: Homo sapiens, HeLa, 48 h, HeLa, 48 h, read-out: IC50 values ± SD in MTT assay.

Read-outs that look alike come from different tables or passages of the source. Some results are limits rather than exact numbers.

In general, IC50 refers to the midpoint of a concentration-inhibition curve. Regarding `COc1ccc(-c2cc(=O)c3c(O)cc(OC)cc3o2)cc1` [apigenin 7,4′-O-dimethyl ether], in series [1], the “effect on viability of fibroblasts” value was “significantly decreased viability”. Moreover, the IC50 was 18 ± 3.9 µM in series [1] (24 h); 10.9 ± 4.6 µM in series [1] (48 h); more than 50 µM in series [2] (24 h); more than 50 µM in series [2] (48 h); more than 50 µM in series [3] (setting [9]); more than 50 µM in series [3] (setting [10]). For the same compound, the IC50 in series [4] (24 h) is 27.6 ± 2.8 µM; in series [4] (48 h) it was 7.6 ± 1.1 µM; in series [5] (24 h), more than 50 µM; in series [5] (48 h), more than 50 µM; in series [6] (24 h) it was 26.2 ± 1.9 µM; in series [6] (48 h), 20.9 ± 1.4 µM.

With `O=c1cc(-c2ccc(O)cc2)oc2cc(O)cc(O)c12` [apigenin, reference compound], the IC50 in series [1] (Homo sapiens, Fibroblast, 24 h) was more than 50 µM; in series [1] (Homo sapiens, Fibroblast, 48 h), more than 50 µM; in series [2] (Homo sapiens, 24 h) it was more than 50 µM; in series [2] (Homo sapiens, 48 h) it was 38 ± 2.1 µM; in series [3] (setting [11]), approximately 30 µM; in series [3] (setting [12]), approximately 17.9 µM. The IC50 in series [7] (Homo sapiens) was 14.5 ± 1.8 µM; in series [4] (Homo sapiens, Fibroblast, 24 h), more than 50 µM; in series [4] (Homo sapiens, Fibroblast, 48 h), 48.6 ± 3.1 µM; in series [5] (Homo sapiens, 24 h) it was approximately 27 µM; in series [5] (Homo sapiens, 48 h), approximately 14.2 µM; in series [8] (24 h) it was approximately 38 µM. For the same compound, the IC50 in series [8] (48 h) was approximately 10 µM; in series [6] (Homo sapiens, 24 h), more than 50 µM; in series [6] (Homo sapiens, 48 h), 33.1 ± 2.2 µM.

On to `COc1cc2oc(-c3ccc(O)cc3)cc(=O)c2c(O)c1OC` [cirsimaritin], for which the IC50 in series [1] (Homo sapiens, Fibroblast, 24 h) was more than 50 µM; in series [1] (Homo sapiens, Fibroblast, 48 h), more than 50 µM; in series [2] (Homo sapiens, 24 h) it was 34.2 ± 2.7 µM; in series [2] (Homo sapiens, 48 h) it was 26.1 ± 2.1 µM; in series [3] (setting [11]), 36.6 ± 2.2 µM; in series [3] (setting [12]) it was 16 ± 1.9 µM. The IC50 in series [4] (Homo sapiens, Fibroblast, 24 h) is more than 50 µM; in series [4] (Homo sapiens, Fibroblast, 48 h), more than 50 µM; in series [5] (Homo sapiens, 24 h), 17.5 ± 2.4 µM; in series [5] (Homo sapiens, 48 h) it was 13.9 ± 1.4 µM; in series [6] (24 h), more than 50 µM; in series [6] (Homo sapiens, 24 h), more than 50 µM. In addition, the IC50 in series [6] (Homo sapiens, 48 h) was found to be 19.6 ± 2.6 µM.

`N.N.[Cl][Pt][Cl]` [cisplatin, reference compound]: the IC50 in series [1] (24 h) is more than 50 µM; in series [1] (48 h) it was 40.5 ± 4.3 µM; in series [2] (24 h) it was 28.1 ± 2 µM; in series [2] (48 h), 11.7 ± 2.2 µM; in series [3] (setting [9]), 30 ± 2.7 µM; in series [3] (setting [10]) it was 9.4 ± 1.3 µM. The IC50 in series [7] was 17.8 ± 2.3 µM; in series [4] (24 h), more than 50 µM; in series [4] (48 h), 43.1 ± 3.5 µM; in series [5] (24 h), 20 ± 2.7 µM; in series [5] (48 h) it was 9.7 ± 2.3 µM; in series [6] (24 h, listed as Cisplatin) it was more than 50 µM. The IC50 in series [6] (24 h) was more than 50 µM; in series [6] (48 h), 12 ± 2 µM.

For the compound `COc1ccc(-c2oc3cc(O)cc(O)c3c(=O)c2OC)cc1` [ermanin], the IC50 in series [1] (Homo sapiens, Fibroblast, 24 h) was more than 50 µM; in series [1] (Homo sapiens, Fibroblast, 48 h), more than 50 µM; in series [2] (Homo sapiens, 24 h), more than 50 µM; in series [2] (Homo sapiens, 48 h), 46.7 ± 3.2 µM; in series [3] (setting [11]), more than 50 µM; in series [3] (setting [12]), 31.8 ± 2.4 µM. The IC50 was more than 50 µM in series [4] (Homo sapiens, Fibroblast, 24 h); more than 50 µM in series [4] (Homo sapiens, Fibroblast, 48 h); 39 ± 2.9 µM in series [5] (Homo sapiens, 24 h); 33.2 ± 1.9 µM in series [5] (Homo sapiens, 48 h); more than 50 µM in series [6] (Homo sapiens, 24 h); more than 50 µM in series [6] (Homo sapiens, 48 h).

As for `O=c1c(O)c(-c2ccc(O)cc2)oc2cc(O)cc(O)c12` [kaempferol], the IC50 in series [1] (Homo sapiens, Fibroblast, 24 h) is more than 50 µM; in series [1] (Homo sapiens, Fibroblast, 48 h), more than 50 µM; in series [2] (Homo sapiens, 24 h) it was more than 50 µM; in series [2] (Homo sapiens, 48 h), more than 50 µM; in series [3] (setting [11]), more than 50 µM; in series [3] (setting [12]), more than 50 µM. Moreover, the IC50 in series [4] (Homo sapiens, Fibroblast, 24 h) was more than 50 µM; in series [4] (Homo sapiens, Fibroblast, 48 h), more than 50 µM; in series [5] (Homo sapiens, 24 h), more than 50 µM; in series [5] (Homo sapiens, 48 h), 38.3 ± 2.5 µM; in series [6] (Homo sapiens, 24 h), more than 50 µM; in series [6] (Homo sapiens, 48 h), more than 50 µM.

Take `COc1cc(O)c2c(=O)c(OC)c(-c3ccc(O)cc3)oc2c1` [kumatakenin]: the half-maximal inhibitory concentration (IC50) in series [1] (Homo sapiens, Fibroblast, 24 h) was 47 ± 5.6 µM; in series [1] (Homo sapiens, Fibroblast, 48 h), 42.9 ± 4.3 µM; in series [2] (Homo sapiens, 24 h) it was more than 50 µM; in series [2] (Homo sapiens, 48 h) it was more than 50 µM; in series [3] (setting [11]), more than 50 µM; in series [3] (setting [12]), more than 50 µM. The IC50 in series [4] (Homo sapiens, Fibroblast, 24 h) was 35.7 ± 2.5 µM; in series [4] (Homo sapiens, Fibroblast, 48 h), 15.3 ± 2.3 µM; in series [5] (Homo sapiens, 24 h), more than 50 µM; in series [5] (Homo sapiens, 48 h), more than 50 µM; in series [6] (Homo sapiens, 24 h), 30.5 ± 2 µM; in series [6] (Homo sapiens, 48 h), 24.2 ± 1.8 µM. In addition, the “effect on viability of fibroblasts” value in series [1] (fibroblasts, MTT and neutral red uptake assays, 24 and 48 h) is on record as “significantly decreased viability”.

As to `O=c1cc(-c2ccc(O)c(O)c2)oc2cc(O)cc(O)c12` [luteolin, reference compound], the IC50 in series [1] (Homo sapiens, Fibroblast, 24 h) was more than 50 µM; in series [1] (Homo sapiens, Fibroblast, 48 h), more than 50 µM; in series [2] (Homo sapiens, 24 h), more than 50 µM; in series [2] (Homo sapiens, 48 h) it was 31.6 ± 2.9 µM; in series [3] (setting [11]), 42.8 ± 3.6 µM; in series [7] (Homo sapiens), 8.4 ± 1.5 µM. The IC50 in series [4] (Homo sapiens, Fibroblast, 24 h) is more than 50 µM; in series [4] (Homo sapiens, Fibroblast, 48 h), more than 50 µM; in series [5] (Homo sapiens, 24 h), 31.5 ± 2.5 µM; in series [5] (Homo sapiens, 48 h), approximately 28 µM; in series [6] (Homo sapiens, 24 h), more than 50 µM; in series [6] (Homo sapiens, 48 h), 25.9 ± 2.5 µM. Further, in series [8] (20 μM luteolin, MTT assay, 48 h time point, ref Raina et al., 2021), the “reduction in HeLa cell viability” value was “about 50%”.

As for `COc1ccc(C2CC(=O)c3c(O)cc(OC)cc3O2)cc1` (centres unmarked) [naringenin 7,4′-O-dimethyl ether], the IC50 in series [1] (24 h), in series [1] (48 h), in series [2] (24 h), in series [2] (48 h), in series [3] (setting [9]) and in series [3] (setting [10]) was more than 50 µM each time. The IC50 in series [3] (cancer cells (HeLa and Ishikawa), MTT and neutral red uptake assays, 24 and 48 h, read-out: IC50, viability of cancer cells) is more than 50 µM; in series [4] (24 h) it was more than 50 µM; in series [4] (48 h), more than 50 µM; in series [5] (24 h), more than 50 µM; in series [5] (48 h), more than 50 µM; in series [6] (24 h) it was more than 50 µM. The IC50 in series [6] (48 h) is more than 50 µM.

Regarding `O=c1c(O)c(-c2ccc(O)c(O)c2)oc2cc(O)cc(O)c12` [quercetin], the IC50 in series [1] (Homo sapiens, Fibroblast, 24 h) is more than 50 µM; in series [1] (Homo sapiens, Fibroblast, 48 h), more than 50 µM; in series [2] (Homo sapiens, 24 h) it was more than 50 µM; in series [2] (Homo sapiens, 48 h), 42.9 ± 3.8 µM; in series [3] (setting [11]), more than 50 µM; in series [3] (setting [12]) it was more than 50 µM. The IC50 in series [4] (Homo sapiens, Fibroblast, 24 h) was more than 50 µM; in series [4] (Homo sapiens, Fibroblast, 48 h) it was more than 50 µM; in series [5] (Homo sapiens, 24 h), 39.1 ± 3.2 µM; in series [5] (Homo sapiens, 48 h), 36.9 ± 2 µM; in series [6] (Homo sapiens, 24 h) it was more than 50 µM; in series [6] (Homo sapiens, 48 h), 45.4 ± 4.1 µM.

As for `COc1cc(O)c2c(c1)O[C@H](c1ccc(O)cc1)CC2=O` [sakuranetin], the IC50 in series [1] (Homo sapiens, Fibroblast, 24 h) is more than 50 µM; in series [1] (Homo sapiens, Fibroblast, 48 h), more than 50 µM; in series [2] (Homo sapiens, 24 h), more than 50 µM; in series [2] (Homo sapiens, 48 h) it was more than 50 µM; in series [3] (setting [11]), more than 50 µM; in series [3] (setting [12]), more than 50 µM. The IC50 in series [3] (Homo sapiens, HeLa, cancer cells (HeLa and Ishikawa), MTT and neutral red uptake assays, 24 and 48 h, read-out: IC50, viability of cancer cells) is more than 50 µM; in series [4] (Homo sapiens, Fibroblast, 24 h), more than 50 µM; in series [4] (Homo sapiens, Fibroblast, 48 h), more than 50 µM; in series [5] (Homo sapiens, 24 h), more than 50 µM; in series [5] (Homo sapiens, 48 h), more than 50 µM; in series [6] (Homo sapiens, 24 h) it was more than 50 µM. Also, the IC50 in series [6] (Homo sapiens, 48 h) was more than 50 µM.

Source of the values: paper PMC10512030, “Prolidase-proline oxidase axis is engaged in apoptosis induction by birch buds flavonol santin in endometrial adenocarcinoma cell line” (Frontiers in Molecular Biosciences, 2023).
